Test results reported in patent publication US20240092790A1, “DIHYDROFUROPYRIDINE DERIVATIVES AS RHO- KINASE INHIBITORS” (CHIESI FARMACEUTICI S.P.A., priority 2020, published 2024).
pKi: −log10 of the molar value.

Legend:
Format in all cases: biochemical
ROCK1 = ROCK1 (Homo sapiens, UniProt Q13464); assay: In vitro inhibitory activity assay ROCK1 (ADP-Glo); details: ATP 200 μM, Cheng-Prusoff; read-out: ROCK 1 (Ki, range of activity)
Experimental: (§1) In Vitro Inhibitory Activity Assay Description ROCK1 and ROCK2
(§2) The effectiveness of compounds of the present invention to inhibit Rho kinase activity can be determined in a 10 μl assay containing 40 mM Tris pH7.5, 20 mM MgCl2 0.1 mg/mL BSA, 50 μM DTT and 2.5 μM peptide substrate (Myelin Basic Protein) using an ADP-Glo kit (Promega). Compounds were dissolved in DMSO such that the final concentration of DMSO was 1% in the assay. All reactions/incubations are performed at 25° C. Compound (2 ul) and either Rho kinase 1 or 2 (4 μl) were mixed and incubated for 30 mins. Reactions were initiated by addition of ATP (4 μl) such that the final concentration of ATP in the assay was 200 μM. After a 1 hour incubation 10 μl of ADP-Glo Reagent was added and after a further 1 hour incubation 20 ul of Kinase Detection Buffer was added and the mixture incubated for a further 45 minutes. The luminescent signal was measured on a luminometer. […] Compounds were tested in dose-response format and the inhibition of kinase activity was calculated at each concentration of compound. To determine the IC50 (concentration of compound required to inhibit 50% of the enzyme activity) data were fit to a plot of % inhibition vs Log 10 compound concentration using a sigmoidal fit with a variable slope and fixing the maximum to 100% and the minimum to 0%. To determine the Ki values the Cheng-Prusoff equation was utilized (Ki=IC50/(1+[S]/Km).

ROCK2 = ROCK2 (Homo sapiens, UniProt O75116); assay: In vitro inhibitory activity assay ROCK2 (ADP-Glo); details: ATP 200 μM, Cheng-Prusoff; read-out: ROCK2 (Ki, range of activity)
Chain of ROCK2 (O75116 whole entry): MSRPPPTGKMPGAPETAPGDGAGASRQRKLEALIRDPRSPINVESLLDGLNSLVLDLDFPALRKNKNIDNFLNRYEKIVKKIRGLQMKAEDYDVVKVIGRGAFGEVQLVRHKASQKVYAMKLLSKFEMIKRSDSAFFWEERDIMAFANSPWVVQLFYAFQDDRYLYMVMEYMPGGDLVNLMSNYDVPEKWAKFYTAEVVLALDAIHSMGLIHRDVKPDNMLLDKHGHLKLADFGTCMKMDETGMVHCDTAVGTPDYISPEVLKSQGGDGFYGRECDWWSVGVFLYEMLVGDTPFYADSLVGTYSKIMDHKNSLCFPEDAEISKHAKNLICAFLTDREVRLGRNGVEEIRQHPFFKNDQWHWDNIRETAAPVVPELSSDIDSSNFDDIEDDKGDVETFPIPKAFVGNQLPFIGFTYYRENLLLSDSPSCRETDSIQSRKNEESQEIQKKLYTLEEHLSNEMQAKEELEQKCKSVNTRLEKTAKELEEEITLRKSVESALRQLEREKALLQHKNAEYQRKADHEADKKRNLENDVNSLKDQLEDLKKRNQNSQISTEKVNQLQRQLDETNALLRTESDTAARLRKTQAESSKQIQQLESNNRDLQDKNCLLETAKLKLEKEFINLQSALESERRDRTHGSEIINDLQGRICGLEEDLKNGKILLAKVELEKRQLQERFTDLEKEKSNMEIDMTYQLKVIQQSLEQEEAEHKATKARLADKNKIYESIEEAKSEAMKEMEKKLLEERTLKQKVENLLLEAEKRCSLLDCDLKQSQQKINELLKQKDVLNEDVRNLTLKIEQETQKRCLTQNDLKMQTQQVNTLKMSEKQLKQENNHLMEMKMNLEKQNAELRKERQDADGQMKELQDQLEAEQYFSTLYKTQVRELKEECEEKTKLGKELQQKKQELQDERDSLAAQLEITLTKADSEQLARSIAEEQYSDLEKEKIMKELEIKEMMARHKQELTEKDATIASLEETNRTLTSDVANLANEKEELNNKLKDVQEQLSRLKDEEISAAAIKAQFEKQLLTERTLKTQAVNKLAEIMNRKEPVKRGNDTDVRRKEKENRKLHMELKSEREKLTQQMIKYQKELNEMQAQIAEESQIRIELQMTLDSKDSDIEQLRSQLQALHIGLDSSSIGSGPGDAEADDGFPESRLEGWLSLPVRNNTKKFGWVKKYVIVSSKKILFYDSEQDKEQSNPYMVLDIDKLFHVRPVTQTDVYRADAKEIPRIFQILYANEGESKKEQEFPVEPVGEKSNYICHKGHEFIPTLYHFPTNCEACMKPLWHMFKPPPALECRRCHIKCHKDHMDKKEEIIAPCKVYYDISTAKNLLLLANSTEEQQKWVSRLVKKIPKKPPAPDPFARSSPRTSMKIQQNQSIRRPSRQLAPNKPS
Experimental: as §1, §2

PKA = PKA (Homo sapiens, UniProt P17612); assay: In vitro inhibitory activity assay for PKA (ADP-Glo), reported as selectivity ratio vs ROCK2; details: Ki value for PKA divided by Ki value of ROCK2
Experimental: In Vitro Inhibitory Activity Assay Description for PKA
The effectiveness of compounds of the present invention to inhibit PKA activity can be determined in a 10 μl assay containing 40 mM Tris pH7.5, 20 mM MgCl2 0.1 mg/ml BSA, 50 μM DTT and 260 μM peptide substrate (kemptide) using an ADP-Glo kit (Promega). Compounds were dissolved in DMSO such that the final concentration of DMSO was 1% in the assay. All reactions/incubations are performed at 25° C. Compound and PKA enzyme (6 μl) were mixed and incubated for 30 mins. Reactions were initiated by addition of ATP (4 μl) such that the final concentration of ATP in the assay was 10 μM. After a 30 minute incubation 10p of ADP-Glo Reagent was added and after a further 1 hour incubation 20 μl of Kinase Detection Buffer was added and the mixture incubated for a further 45 minutes. The luminescent signal was measured on a luminometer. […] Compounds were tested in dose-response format and the inhibition of kinase activity was calculated at each concentration of compound. To determine the IC50 (concentration of compound required to inhibit 50% of the enzyme activity) data were fit to a plot of % inhibition vs Log10 compound concentration using a sigmoidal fit with a variable slope and fixing the maximum to 100% and the minimum to 0%. To determine the Ki values the Cheng-Prusoff equation was utilized (Ki=IC50/(1+[S]/Km).
In vitro inhibitory activities for PKA were reported as selectivity ratio vs. ROCK-2.

Chain of ROCK1 (Q13464 whole entry): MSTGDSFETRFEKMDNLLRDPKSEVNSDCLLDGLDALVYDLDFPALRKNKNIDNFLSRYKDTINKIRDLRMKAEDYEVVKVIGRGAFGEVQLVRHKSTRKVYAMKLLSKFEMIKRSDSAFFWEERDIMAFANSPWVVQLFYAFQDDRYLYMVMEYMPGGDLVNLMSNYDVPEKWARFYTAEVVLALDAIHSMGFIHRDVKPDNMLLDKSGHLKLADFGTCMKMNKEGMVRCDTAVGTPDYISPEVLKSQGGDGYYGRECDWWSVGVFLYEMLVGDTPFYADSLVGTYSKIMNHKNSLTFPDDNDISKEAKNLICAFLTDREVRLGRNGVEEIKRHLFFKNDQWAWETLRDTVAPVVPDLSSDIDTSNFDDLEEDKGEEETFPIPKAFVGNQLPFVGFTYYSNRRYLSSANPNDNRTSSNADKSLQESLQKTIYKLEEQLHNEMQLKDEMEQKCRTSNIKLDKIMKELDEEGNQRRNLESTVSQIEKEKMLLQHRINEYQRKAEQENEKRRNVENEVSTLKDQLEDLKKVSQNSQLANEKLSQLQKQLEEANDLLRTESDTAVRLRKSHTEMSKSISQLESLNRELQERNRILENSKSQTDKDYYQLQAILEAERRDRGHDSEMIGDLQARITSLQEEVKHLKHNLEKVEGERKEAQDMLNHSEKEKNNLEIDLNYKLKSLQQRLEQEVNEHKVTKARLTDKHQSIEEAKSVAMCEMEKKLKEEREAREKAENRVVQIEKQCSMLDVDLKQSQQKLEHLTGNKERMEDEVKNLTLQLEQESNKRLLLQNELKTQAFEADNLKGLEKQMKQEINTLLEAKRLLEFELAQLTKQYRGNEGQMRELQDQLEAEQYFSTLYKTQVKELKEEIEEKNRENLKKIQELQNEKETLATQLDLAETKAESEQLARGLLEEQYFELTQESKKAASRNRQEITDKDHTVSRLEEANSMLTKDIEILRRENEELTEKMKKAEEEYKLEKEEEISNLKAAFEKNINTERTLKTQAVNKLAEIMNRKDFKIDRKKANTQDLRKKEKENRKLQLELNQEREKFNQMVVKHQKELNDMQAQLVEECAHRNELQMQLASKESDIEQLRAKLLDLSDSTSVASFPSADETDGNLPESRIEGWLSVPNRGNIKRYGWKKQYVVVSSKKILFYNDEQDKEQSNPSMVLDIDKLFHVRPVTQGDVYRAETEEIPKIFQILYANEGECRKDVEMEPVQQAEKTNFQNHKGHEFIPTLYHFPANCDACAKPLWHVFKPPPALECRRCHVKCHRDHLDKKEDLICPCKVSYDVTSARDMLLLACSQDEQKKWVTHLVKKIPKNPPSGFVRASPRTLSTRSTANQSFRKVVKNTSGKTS

| pKi (ROCK1) | pKi (ROCK2) | Ratio (PKA/ROCK2) (PKA) | Compound |
| --- | --- | --- | --- |
| ≥ 8.52 | ≥ 8.52 | ** (5≤ratio<10) | Nc1nccc(-c2cnc(NCc3cccc(C(=O)N[C@H]4C[C@@H](F)C4)c3)c3c2OCC3)n1 [Example 48, 3-(((7-(2-Aminopyrimidin-4-yl)-2,3-dihydrofuro[3,2-c]pyridin-4-yl)amino)methyl)-N-((1S,3S)-3-fluorocyclobutyl)benzamide] |
| 7.52 to 8.52 | 7.52 to 8.52 | *** (ratio≥10) | Nc1nccc(-c2cnc(NCc3cccc(C(=O)NC4CCOCC4)c3F)c3c2OCC3)n1 [Example 56, 3-(((7-(2-Aminopyrimidin-4-yl)-2,3-dihydrofuro[3,2-c]pyridin-4-yl)amino)methyl)-2-fluoro-N-(tetrahydro-2H-pyran-4-yl)benzamide] |
| 7.52 to 8.52 | ≥ 8.52 | *** (ratio≥10) | COCCCC(=O)Nc1cccc(CNc2ncc(-c3ccnc(N)n3)c3c2CCO3)c1 [Example 64, N-(3-(((7-(2-aminopyrimidin-4-yl)-2,3-dihydrofuro[3,2-c]pyridin-4-yl)amino)methyl)phenyl)-4-methoxybutanamide] |
| ≥ 8.52 | ≥ 8.52 | *** (ratio≥10) | Nc1nccc(-c2cnc(NCc3cccc(C(=O)N[C@H]4C[C@H]4F)c3)c3c2OCC3)n1 [Example 47, 3-(((7-(2-Aminopyrimidin-4-yl)-2,3-dihydrofuro[3,2-c]pyridin-4-yl)amino)methyl)-N-((1S,2R)-2-fluorocyclopropyl)benzamide] |
| ≥ 8.52 | ≥ 8.52 | *** (ratio≥10) | CNC(=O)c1cc(F)cc(CNc2ncc(-c3ccnc(N)n3)c3c2CCO3)c1 [Example 59, 3-(((7-(2-Aminopyrimidin-4-yl)-2,3-dihydrofuro[3,2-c]pyridin-4-yl)amino)methyl)-5-fluoro-N-methylbenzamide] |
| 7.52 to 8.52 | ≥ 8.52 | *** (ratio≥10) | COCCCNC(=O)c1cccc(CNc2ncc(-c3ccnc(N)n3)c3c2CCO3)c1F [Example 55, 3-(((7-(2-Aminopyrimidin-4-yl)-2,3-dihydrofuro[3,2-c]pyridin-4-yl)amino)methyl)-2-fluoro-N-(3-methoxypropyl)benzamide] |

The next lines start with the compound.

| Compound | pKi (ROCK1) | pKi (ROCK2) | Ratio (PKA/ROCK2) (PKA) |
| --- | --- | --- | --- |
| [2H]C([2H])([2H])OCCCNC(=O)c1cccc(CNc2ncc(-c3ccnc(N)n3)c3c2CCO3)c1 [Example 6, 3-(((7-(2-aminopyrimidin-4-yl)-2,3-dihydrofuro[3,2-c]pyridin-4-yl)amino)methyl)-N-(3-(methoxy-d3)propyl)benzamide] | ≥ 8.52 | ≥ 8.52 | *** (ratio≥10) |
| Nc1nccc(-c2cnc(NCc3cccc(C(=O)NC4CC4F)c3)c3c2OCC3)n1 (single isomer, unassigned) [Example 46, Trans 3-(((7-(2-Aminopyrimidin-4-yl)-2,3-dihydrofuro[3,2-c]pyridin-4-yl)amino)methyl)-N-(2-fluorocyclopropyl)benzamide] | ≥ 8.52 | ≥ 8.52 | *** (ratio≥10) |
| Nc1nccc(-c2cnc(NCc3cccc(C(=O)N[C@H]4C[C@@H](OC(F)F)C4)c3)c3c2OCC3)n1 [Example 26, 3-(((7-(2-aminopyrimidin-4-yl)-2,3-dihydrofuro[3,2-c]pyridin-4-yl)amino)methyl)-N-((1s,3s)-3-(difluoromethoxy)cyclobutyl)benzamide] | ≥ 8.52 | ≥ 8.52 | *** (ratio≥10) |
| Nc1nccc(-c2cnc(NCc3cccc(C(=O)NCCCOC(F)F)c3)c3c2OCC3)n1 [Example 14, 3-(((7-(2-Aminopyrimidin-4-yl)-2,3-dihydrofuro[3,2-c]pyridin-4-yl)amino)methyl)-N-(3-(difluoromethoxy)propyl)benzamide] | ≥ 8.52 | ≥ 8.52 | *** (ratio≥10) |
| Nc1nccc(-c2cnc(NCc3cccc(C(=O)NC4CN(C5COC5)C4)c3)c3c2OCC3)n1 [Example 24, 3-(((7-(2-aminopyrimidin-4-yl)-2,3-dihydrofuro[3,2-c]pyridin-4-yl)amino)methyl)-N-(1-(oxetan-3-yl)azetidin-3-yl)benzamide] | ≥ 8.52 | ≥ 8.52 | *** (ratio≥10) |
| Nc1nccc(-c2cnc(NCc3cccc(C(=O)N[C@H]4C[C@H](F)C4)c3)c3c2OCC3)n1 [Example 49, 3-(((7-(2-Aminopyrimidin-4-yl)-2,3-dihydrofuro[3,2-c]pyridin-4-yl)amino)methyl)-N-((1r,3r)-3-fluorocyclobutyl)benzamide] | ≥ 8.52 | ≥ 8.52 | *** (ratio≥10) |
| Nc1nccc(-c2cnc(NCc3cccc(C(=O)NC4CC4)c3)c3c2OCC3)n1 [Example 4, 3-(((7-(2-Aminopyrimidin-4-yl)-2,3-dihydrofuro[3,2-c]pyridin-4-yl)amino)methyl)-N-cyclopropylbenzamide] | ≥ 8.52 | ≥ 8.52 | *** (ratio≥10) |
| COCCNC(=O)c1cccc(CNc2ncc(-c3ccnc(N)n3)c3c2CCO3)c1 [Example 9, 3-(((7-(2-Aminopyrimidin-4-yl)-2,3-dihydrofuro[3,2-c]pyridin-4-yl)amino)methyl)-N-(2-methoxyethyl)benzamide] | ≥ 8.52 | ≥ 8.52 | *** (ratio≥10) |
| CN1CCOC(CNC(=O)c2cccc(CNc3ncc(-c4ccnc(N)n4)c4c3CCO4)c2)C1 (single isomer, unassigned) [Example 34, 3-(((7-(2-Aminopyrimidin-4-yl)-2,3-dihydrofuro[3,2-c]pyridin-4-yl)amino)methyl)-N-((4-methylmorpholin-2-yl)methyl)benzamide] | ≥ 8.52 | ≥ 8.52 | *** (ratio≥10) |
| Nc1nccc(-c2cnc(NCc3cccc(C(=O)NCCCF)c3)c3c2OCC3)n1 [Example 29, 3-(((7-(2-Aminopyrimidin-4-yl)-2,3-dihydrofuro[3,2-c]pyridin-4-yl)amino)methyl)-N-(3-fluoropropyl)benzamide] | ≥ 8.52 | ≥ 8.52 | *** (ratio≥10) |
| CN1CCC(NC(=O)c2cccc(CNc3ncc(-c4ccnc(N)n4)c4c3CCO4)c2)CC1 [Example 13, 3-(((7-(2-Aminopyrimidin-4-yl)-2,3-dihydrofuro[3,2-c]pyridin-4-yl)amino)methyl)-N-(1-methylpiperidin-4-yl)benzamide] | ≥ 8.52 | ≥ 8.52 | *** (ratio≥10) |
| COCC1(CNC(=O)c2cccc(CNc3ncc(-c4ccnc(N)n4)c4c3CCO4)c2)CC1 [Example 28, 3-(((7-(2-Aminopyrimidin-4-yl)-2,3-dihydrofuro[3,2-c]pyridin-4-yl)amino)methyl)-N-((1-(methoxymethyl)cyclopropyl)methyl)benzamide] | 7.52 to 8.52 | ≥ 8.52 | *** (ratio≥10) |
| Nc1nccc(-c2cnc(NCc3ccc(F)c(C(=O)NC4CCOCC4)c3)c3c2OCC3)n1 [Example 58, 5-(((7-(2-Aminopyrimidin-4-yl)-2,3-dihydrofuro[3,2-c]pyridin-4-yl)amino)methyl)-2-fluoro-N-(tetrahydro-2H-pyran-4-yl)benzamide] | 7.52 to 8.52 | ≥ 8.52 | *** (ratio≥10) |
